Values of other authors, collected in patent US20020028808A1, “Use of potassium channel agonists for the treatment of cancer” (priority 2000, published 2002).
Like-named read-outs stand apart in the source and are kept apart here.

What was measured:
[1] = tested on: patients suffering from insulinoma and nesidioblastosis
[2] = tested on: adipose tissue of Zucker rats
[3] = biological target: T1, KATP-channels on pancreatic beta-cells (Homo sapiens, UniProt Q09428+Q14654); conditions: by activation of KATP-channels
T1 construct: KATP-channels on pancreatic beta-cells; host or cells: pancreatic beta-cells
T1 sequence (Q09428 whole entry): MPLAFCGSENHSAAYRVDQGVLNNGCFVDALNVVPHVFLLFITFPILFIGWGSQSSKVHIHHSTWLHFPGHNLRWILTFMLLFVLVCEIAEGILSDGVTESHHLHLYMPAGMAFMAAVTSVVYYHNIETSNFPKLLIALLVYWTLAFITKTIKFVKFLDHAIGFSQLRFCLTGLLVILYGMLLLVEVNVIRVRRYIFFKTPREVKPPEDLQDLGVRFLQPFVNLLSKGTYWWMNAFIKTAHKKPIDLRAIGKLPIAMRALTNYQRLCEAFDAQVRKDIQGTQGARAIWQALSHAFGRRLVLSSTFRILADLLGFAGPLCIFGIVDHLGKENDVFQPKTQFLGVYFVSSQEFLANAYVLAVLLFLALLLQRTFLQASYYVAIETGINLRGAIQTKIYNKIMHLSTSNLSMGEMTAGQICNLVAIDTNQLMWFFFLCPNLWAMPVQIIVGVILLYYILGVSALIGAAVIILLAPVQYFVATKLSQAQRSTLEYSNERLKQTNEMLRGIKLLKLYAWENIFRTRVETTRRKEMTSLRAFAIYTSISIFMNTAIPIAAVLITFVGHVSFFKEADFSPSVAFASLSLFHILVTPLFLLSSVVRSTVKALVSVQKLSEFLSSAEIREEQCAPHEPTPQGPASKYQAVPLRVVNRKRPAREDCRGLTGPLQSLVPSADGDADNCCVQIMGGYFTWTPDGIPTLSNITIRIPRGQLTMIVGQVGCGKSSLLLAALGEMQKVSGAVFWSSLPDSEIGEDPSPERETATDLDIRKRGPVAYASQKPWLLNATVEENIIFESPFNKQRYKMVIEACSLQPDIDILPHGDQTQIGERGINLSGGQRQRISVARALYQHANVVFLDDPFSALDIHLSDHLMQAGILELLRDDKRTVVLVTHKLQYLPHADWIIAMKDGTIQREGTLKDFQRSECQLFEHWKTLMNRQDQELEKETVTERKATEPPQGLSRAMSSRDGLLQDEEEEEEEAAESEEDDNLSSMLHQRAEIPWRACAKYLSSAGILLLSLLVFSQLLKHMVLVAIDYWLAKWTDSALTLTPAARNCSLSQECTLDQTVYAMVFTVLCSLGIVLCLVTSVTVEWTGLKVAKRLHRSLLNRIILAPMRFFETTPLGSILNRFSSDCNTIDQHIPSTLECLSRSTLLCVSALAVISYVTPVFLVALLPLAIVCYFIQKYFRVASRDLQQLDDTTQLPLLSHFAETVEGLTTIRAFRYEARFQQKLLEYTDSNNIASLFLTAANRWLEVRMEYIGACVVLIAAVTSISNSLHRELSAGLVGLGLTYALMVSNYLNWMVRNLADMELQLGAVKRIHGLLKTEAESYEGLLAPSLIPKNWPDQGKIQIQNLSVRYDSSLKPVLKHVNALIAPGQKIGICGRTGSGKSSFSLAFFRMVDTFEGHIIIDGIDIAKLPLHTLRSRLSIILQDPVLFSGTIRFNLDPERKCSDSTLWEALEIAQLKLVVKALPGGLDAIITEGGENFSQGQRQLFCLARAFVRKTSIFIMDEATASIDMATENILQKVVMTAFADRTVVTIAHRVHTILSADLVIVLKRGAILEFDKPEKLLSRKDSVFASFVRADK
T1 sequence (Q14654 whole entry): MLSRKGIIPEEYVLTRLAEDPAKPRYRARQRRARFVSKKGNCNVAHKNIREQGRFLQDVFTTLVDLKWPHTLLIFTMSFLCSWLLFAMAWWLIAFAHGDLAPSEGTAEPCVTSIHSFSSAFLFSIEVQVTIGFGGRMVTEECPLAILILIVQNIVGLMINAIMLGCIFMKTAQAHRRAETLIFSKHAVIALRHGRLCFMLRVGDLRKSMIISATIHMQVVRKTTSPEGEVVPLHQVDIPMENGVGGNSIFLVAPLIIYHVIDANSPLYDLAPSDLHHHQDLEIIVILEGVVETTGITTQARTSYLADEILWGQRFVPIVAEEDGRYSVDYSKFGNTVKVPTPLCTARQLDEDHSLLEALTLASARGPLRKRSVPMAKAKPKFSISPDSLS

CC1=Nc2ccc(Cl)cc2S(=O)(=O)N1 [diazoxide, 7-chloro-3-methyl-2H-1,2,4-benzothiadiazine 1,1-dioxide]
abnormal hyperinsulinaemia ([1]; nesidioblastosis (PHHI, persistent hyperinsulinaemia and hypoglycemia of infancy)): ameliorates the abnormal hyperinsulinaemia
abnormal hyperinsulinaemia ([1]; patients suffering from insulinoma): ameliorates the abnormal hyperinsulinaemia
glucose stimulated insulin release (healthy individuals): reduces glucose stimulated insulin release
leptin and lipid metabolising enzymes [2]: down-regulate leptin and lipid metabolising enzymes
insulin release [3]: inhibit insulin release
